Source: ChEMBL document CHEMBL5465560, “Selectivity Literature for EUbOPEN Chemogenomic Library” (2024)
Each block holds one molecule with its values, some of them ahead of it.

Columns and labels:
[1] = biological target: Leukotriene B4 receptor 1 (Homo sapiens) (UniProt Q15722); assay: Selectivity interaction (Eurofins CEREP Diversity Profile (receptors and ion channels)) EUB0000279b LTB4R; details: at 10 µM
[2] = biological target: T1, Peripheral plasma membrane protein CASK (Homo sapiens) (UniProt O14936); assay: Selectivity interaction (KinomeScan (DiscoverX)) EUB0001079a CASK; details: at 1 µM
T1 sequence (whole entry): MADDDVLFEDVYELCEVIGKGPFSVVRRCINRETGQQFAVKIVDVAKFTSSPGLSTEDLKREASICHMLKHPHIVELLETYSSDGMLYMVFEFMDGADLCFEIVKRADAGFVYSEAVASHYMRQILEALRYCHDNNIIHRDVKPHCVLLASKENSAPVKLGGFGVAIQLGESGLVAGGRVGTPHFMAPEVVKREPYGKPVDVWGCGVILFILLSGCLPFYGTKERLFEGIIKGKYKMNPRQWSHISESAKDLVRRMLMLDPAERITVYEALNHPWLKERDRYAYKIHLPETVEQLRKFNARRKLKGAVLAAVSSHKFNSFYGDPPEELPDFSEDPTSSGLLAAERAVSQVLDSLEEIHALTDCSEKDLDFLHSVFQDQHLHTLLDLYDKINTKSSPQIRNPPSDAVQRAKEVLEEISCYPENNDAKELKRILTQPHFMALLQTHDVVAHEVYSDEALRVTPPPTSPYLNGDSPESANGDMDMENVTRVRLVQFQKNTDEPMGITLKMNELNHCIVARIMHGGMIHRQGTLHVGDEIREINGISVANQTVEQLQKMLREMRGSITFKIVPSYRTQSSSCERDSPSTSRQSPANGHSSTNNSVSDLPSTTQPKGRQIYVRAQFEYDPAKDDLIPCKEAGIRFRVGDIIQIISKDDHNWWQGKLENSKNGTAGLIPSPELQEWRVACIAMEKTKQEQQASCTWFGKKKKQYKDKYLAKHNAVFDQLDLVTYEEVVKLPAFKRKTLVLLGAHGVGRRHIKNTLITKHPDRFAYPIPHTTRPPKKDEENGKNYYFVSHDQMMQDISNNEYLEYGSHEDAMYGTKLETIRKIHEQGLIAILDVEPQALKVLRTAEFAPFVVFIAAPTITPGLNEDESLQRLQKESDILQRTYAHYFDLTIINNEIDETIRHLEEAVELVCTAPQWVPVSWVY

[3] = biological target: T2, Ephrin type-B receptor 1 (Homo sapiens) (UniProt P54762); assay: Selectivity interaction (KinomeScan (DiscoverX)) EUB0000618a EPHB1; details: at 10 µM
T2 sequence (whole entry): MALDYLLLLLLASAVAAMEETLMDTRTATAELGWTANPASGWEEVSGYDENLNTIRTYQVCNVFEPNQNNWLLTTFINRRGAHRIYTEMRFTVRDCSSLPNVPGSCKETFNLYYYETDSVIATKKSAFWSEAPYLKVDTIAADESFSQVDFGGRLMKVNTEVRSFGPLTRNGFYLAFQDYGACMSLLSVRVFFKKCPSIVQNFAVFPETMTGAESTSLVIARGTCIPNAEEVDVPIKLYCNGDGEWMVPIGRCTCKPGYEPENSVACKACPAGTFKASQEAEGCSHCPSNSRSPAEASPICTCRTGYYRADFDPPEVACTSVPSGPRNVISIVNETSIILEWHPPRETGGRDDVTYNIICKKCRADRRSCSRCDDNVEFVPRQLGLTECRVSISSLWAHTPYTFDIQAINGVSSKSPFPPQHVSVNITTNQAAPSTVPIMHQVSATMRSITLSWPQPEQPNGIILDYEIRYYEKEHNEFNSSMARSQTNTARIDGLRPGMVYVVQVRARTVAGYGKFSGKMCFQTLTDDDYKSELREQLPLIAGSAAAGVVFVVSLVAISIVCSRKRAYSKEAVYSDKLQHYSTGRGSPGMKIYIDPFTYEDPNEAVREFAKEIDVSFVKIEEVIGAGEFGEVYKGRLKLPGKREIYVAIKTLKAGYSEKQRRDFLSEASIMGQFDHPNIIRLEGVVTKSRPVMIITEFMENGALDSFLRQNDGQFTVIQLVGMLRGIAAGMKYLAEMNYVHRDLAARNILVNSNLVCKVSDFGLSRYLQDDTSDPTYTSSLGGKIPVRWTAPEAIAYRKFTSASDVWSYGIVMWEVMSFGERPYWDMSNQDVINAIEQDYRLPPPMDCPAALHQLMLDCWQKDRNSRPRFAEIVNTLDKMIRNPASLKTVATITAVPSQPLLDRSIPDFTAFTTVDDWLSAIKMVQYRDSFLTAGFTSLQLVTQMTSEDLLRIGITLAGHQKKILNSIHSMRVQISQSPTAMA

[4] = biological target: RAC-beta serine/threonine-protein kinase (Homo sapiens) (UniProt P31751); assay: Selectivity interaction (SelectScreen profiling (Invitrogen)) EUB0000607a AKT2; details: at 2 µM
[5] = biological target: Tyrosine-protein kinase Lck (Homo sapiens, UniProt P06239); assay: Selectivity interaction (KinomeScan (DiscoverX)) EUB0001619a LCK; details: at 1 µM
[6] = biological target: T3, Serine/threonine-protein kinase ICK (Homo sapiens) (UniProt Q9UPZ9); assay: Selectivity interaction (KinomeScan (DiscoverX)) EUB0000229b ICK; details: at 10 µM
T3 sequence (whole entry): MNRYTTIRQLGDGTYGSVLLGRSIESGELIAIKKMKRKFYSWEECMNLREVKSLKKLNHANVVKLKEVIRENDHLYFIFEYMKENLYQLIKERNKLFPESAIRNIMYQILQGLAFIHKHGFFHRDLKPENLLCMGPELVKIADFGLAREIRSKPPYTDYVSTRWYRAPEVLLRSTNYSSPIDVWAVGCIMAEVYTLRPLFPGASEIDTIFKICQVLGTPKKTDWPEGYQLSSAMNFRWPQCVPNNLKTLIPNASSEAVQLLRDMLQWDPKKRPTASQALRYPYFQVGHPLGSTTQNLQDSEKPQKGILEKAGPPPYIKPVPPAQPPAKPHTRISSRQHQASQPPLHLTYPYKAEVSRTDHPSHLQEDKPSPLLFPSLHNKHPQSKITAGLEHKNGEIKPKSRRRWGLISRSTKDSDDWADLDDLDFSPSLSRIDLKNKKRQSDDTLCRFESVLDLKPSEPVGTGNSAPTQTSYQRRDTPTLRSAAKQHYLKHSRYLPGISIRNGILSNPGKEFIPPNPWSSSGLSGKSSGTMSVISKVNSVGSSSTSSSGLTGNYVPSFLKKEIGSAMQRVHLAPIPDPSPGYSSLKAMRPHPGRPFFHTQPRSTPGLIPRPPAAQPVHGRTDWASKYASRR

[7] = biological target: Macrophage colony-stimulating factor 1 receptor (Homo sapiens) (UniProt P07333); assay: Selectivity interaction (KinomeScan (DiscoverX)) EUB0000666a CSF1R; details: at 10 µM
[8] = biological target: Mitogen-activated protein kinase kinase kinase 11 (Homo sapiens) (UniProt Q16584); assay: Selectivity interaction (KinomeScan (DiscoverX)) EUB0000666a MAP3K11; details: at 10 µM
[9] = biological target: Tyrosine-protein kinase Fyn (Homo sapiens) (UniProt P06241); assay: Selectivity interaction (LanthaScreen Eu Kinase Binding Assay) EUB0001632a FYN; details: at 10 µM
Tyrosine-protein kinase Fyn (Homo sapiens), sequence (P06241 2-537 limits assumed): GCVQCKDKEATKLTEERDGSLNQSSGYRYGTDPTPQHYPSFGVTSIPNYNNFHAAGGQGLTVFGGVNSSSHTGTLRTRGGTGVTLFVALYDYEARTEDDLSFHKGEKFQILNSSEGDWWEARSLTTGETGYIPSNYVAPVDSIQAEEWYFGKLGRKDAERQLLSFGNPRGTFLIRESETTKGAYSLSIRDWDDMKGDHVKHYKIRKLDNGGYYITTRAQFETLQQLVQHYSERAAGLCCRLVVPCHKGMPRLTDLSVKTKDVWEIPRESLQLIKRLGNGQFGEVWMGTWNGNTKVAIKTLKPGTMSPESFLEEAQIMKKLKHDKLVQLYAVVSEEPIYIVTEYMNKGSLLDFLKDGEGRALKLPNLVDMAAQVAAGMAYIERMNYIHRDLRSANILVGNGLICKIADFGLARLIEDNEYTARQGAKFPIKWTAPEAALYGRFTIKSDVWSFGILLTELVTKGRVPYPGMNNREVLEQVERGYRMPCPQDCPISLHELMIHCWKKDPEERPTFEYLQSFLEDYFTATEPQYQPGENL

Mitogen-activated protein kinase kinase kinase 11 (Homo sapiens), sequence (Q16584 whole entry, looked up): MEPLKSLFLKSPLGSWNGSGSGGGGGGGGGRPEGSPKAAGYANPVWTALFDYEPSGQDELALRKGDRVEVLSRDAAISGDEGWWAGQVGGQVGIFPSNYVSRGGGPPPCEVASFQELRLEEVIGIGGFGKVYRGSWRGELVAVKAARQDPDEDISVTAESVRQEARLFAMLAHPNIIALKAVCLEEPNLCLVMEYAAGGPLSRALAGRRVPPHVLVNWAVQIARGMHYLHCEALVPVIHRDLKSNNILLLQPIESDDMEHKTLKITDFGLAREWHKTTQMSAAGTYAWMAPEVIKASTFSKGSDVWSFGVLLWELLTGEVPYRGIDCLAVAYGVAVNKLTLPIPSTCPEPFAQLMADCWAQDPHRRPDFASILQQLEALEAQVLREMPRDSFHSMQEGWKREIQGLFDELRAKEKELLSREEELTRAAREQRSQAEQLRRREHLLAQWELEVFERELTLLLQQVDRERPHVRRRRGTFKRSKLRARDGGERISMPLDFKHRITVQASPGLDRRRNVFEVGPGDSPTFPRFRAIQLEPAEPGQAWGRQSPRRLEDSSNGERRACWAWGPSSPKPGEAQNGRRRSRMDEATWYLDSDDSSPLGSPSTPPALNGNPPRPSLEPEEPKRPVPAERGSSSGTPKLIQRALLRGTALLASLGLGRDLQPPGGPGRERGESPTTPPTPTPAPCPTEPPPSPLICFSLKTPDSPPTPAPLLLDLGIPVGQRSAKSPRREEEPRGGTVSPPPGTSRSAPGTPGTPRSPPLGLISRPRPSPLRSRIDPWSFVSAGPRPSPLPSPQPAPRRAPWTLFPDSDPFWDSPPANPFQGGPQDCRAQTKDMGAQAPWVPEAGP
Tyrosine-protein kinase Lck, sequence (P06239 2-509 limits assumed): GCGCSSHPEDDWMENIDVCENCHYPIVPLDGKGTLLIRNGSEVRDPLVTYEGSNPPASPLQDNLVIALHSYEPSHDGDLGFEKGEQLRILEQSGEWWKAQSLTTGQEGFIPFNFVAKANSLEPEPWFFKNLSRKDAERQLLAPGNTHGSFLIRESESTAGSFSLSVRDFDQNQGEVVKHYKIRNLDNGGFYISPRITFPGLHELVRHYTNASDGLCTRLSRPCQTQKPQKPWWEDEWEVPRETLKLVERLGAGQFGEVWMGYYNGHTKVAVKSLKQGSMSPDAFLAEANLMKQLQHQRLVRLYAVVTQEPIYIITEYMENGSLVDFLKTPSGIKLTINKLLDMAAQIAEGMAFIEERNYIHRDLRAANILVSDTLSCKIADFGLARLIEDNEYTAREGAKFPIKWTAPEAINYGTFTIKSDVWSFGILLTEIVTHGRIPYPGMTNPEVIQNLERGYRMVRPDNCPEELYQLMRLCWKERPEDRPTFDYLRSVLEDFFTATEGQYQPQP
RAC-beta serine/threonine-protein kinase (Homo sapiens), sequence (P31751 whole entry): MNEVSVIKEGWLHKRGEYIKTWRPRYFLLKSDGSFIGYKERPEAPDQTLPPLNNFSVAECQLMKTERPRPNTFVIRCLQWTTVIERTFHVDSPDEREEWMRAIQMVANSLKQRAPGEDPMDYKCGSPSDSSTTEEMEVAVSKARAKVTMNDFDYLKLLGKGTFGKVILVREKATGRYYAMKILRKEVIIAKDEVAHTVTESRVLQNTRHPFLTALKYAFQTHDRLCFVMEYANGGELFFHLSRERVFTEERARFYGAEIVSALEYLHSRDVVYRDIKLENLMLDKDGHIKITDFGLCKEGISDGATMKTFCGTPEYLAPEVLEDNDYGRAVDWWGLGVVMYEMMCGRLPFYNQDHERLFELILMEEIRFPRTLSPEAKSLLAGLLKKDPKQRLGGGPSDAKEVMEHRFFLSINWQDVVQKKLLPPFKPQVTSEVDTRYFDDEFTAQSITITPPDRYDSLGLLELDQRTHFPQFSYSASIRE
Macrophage colony-stimulating factor 1 receptor (Homo sapiens), sequence (P07333 whole entry): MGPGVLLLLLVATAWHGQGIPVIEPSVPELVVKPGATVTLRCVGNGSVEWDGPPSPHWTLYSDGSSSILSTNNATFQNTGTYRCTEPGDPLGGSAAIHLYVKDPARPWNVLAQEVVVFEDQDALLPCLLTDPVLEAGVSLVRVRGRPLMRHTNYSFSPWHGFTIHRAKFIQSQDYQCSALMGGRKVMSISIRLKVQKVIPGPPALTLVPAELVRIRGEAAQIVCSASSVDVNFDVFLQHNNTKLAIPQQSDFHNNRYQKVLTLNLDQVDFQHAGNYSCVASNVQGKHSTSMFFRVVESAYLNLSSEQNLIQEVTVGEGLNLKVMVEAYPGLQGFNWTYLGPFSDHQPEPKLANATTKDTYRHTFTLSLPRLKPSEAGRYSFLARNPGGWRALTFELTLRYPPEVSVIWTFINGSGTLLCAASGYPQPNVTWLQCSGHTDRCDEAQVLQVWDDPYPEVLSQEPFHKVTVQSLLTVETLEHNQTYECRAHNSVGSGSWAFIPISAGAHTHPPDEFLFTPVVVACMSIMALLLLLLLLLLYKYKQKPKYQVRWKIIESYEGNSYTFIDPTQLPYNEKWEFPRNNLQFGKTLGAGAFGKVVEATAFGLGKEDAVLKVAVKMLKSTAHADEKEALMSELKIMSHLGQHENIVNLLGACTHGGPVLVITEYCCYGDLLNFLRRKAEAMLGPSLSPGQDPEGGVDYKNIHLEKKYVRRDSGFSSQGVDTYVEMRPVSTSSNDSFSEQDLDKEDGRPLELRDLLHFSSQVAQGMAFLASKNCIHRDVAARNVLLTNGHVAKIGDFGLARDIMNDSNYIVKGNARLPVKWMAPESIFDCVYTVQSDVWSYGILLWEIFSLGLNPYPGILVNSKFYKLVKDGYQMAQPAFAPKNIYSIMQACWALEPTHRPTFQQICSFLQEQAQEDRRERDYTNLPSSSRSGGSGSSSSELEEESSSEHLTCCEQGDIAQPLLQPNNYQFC
Leukotriene B4 receptor 1 (Homo sapiens), sequence (Q15722 whole entry): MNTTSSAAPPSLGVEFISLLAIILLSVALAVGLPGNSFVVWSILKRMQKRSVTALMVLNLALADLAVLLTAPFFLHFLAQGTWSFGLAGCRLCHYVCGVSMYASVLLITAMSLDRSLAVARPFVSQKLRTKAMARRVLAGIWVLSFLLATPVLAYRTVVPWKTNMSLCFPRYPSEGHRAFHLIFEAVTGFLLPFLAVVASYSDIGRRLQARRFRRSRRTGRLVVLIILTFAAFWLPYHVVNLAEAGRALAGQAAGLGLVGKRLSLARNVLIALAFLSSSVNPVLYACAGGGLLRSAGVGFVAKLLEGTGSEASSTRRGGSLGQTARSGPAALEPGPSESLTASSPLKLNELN

- % of control [1]: 96%
SMILES: CC(=O)c1cc(-c2ccccc2OCC2CC2)c2ncccn12

SMILES: Nc1cnc(N2CCc3cc(S(=O)(=O)Nc4c(F)cc(Cl)cc4F)cc(N4CCCC4=O)c32)nc1 [TP-020n]
- % of control [2]: 94%

SMILES: O[C@H]1CC[C@H](Nc2ncc3nc(Nc4c(F)cc(F)cc4F)n([C@H]4CCOC4)c3n2)CC1
- % of control [3]: 96%

SMILES: CNC(=O)Nc1ccc(-c2nc(N3CC4CCC(C3)O4)c3cnn(C4CCC5(CC4)OCCO5)c3n2)cc1
- % of inhibition [4]: 5%

SMILES: N#Cc1cccc(-c2c[nH]c3ncnc(N4CCOCC4)c23)c1
- % of control [5]: 95%

SMILES: COc1cc(N(C)c2ccnc3ccc(C(F)(F)F)cc23)cc(OC)c1OC
- % binding [6]: 73%

SMILES: O=C(NOC[C@H](O)CO)c1ccc(F)c(F)c1Nc1ccc(I)cc1F
- % of control [7]: 80%
- % of control [8]: 100%

- % of inhibition [9]: -11.6%
SMILES: Cn1cc(-n2cnc3c(NCc4nc5cc(Cl)c(Cl)cc5[nH]4)nc(N4CCOCC4)nc32)cn1
